Test results published in patent publication US9113629B2, “4-amino-6-(4-substituted-phenyl)-picolinates and 6-amino-2-(4-substituted-phenyl)-pyrimidine-4-carboxylates and their use as herbicides” (DOW AGROSCIENCES LLC, priority 2013, dated 2015).

Tests used:
Assay in all cases: Post-emergent Test III, herbicidal activity in wheat and barley
Type in all cases: in vivo
[1] = test system: VIOSS: wild pansy (Viola tricolor), field violet (Viola arvensis); conditions: 21 days after application
Outline: (§1)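 GR20, GR50, GR80 and GR90 come from probit analysis of visual injury scores (0 = none, 100 = complete kill) taken 21 d after treatment. Foliar application was by track sprayer delivering 187 L/ha at five rates, from high down to 1/16×, onto greenhouse plants at the 2–3 leaf stage, with solvent-blank controls.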

[2] = test system: SASKR: Russian thistle (Salsola iberica); conditions: 21 days after application
Outline: as §1

[3] = test system: STEME: common chickweed (Stellaria media)
Outline: as §1

[4] = test system: PHAMI: lesser canary grass (Phalaris minor)
Outline: as §1

[5] = test system: PAPRH: common poppy (Papaver rhoeas)
Outline: as §1

[6] = probit analysis, dose for 50 percent growth reduction
[7] = probit analysis, dose for 80 percent growth reduction
[8] = probit analysis, dose for growth reduction of 50 percent, 21 days after application
[9] = probit analysis, dose for growth reduction of 80 percent, 21 days after application

In the case of `COC(=O)c1nc(-c2ccc(Br)c(F)c2)c(F)c(N)c1Cl` [Compound 49], the pest or weed control at 35 g/ha ([1]; Viola tricolor, post-emergence, 504 h, 35 g ai/ha, read-out: Visual Gorowth Reduction (%) 21 days After Application VIOSS) is reported as 95 to 100%, the pest or weed control at 70 g/ha ([1]; Viola tricolor, post-emergence, 504 h, 70 g ai/ha, read-out: Visual Gorowth Reduction (%) 21 days After Application VIOSS) is reported as 95 to 100% and the “GR50 VIOSS” value [1, 6] is reported as 5 g ai/ha. The “GR80 VIOSS” value [1, 7] was 8 g ai/ha, the pest or weed control at 35 g/ha ([2]; Salsola tragus, post-emergence, 504 h, 35 g ai/ha, read-out: Visual Gorowth Reduction (%) 21 days After Application SASKR) was 75 to 84% and the pest or weed control at 70 g/ha ([2]; Salsola tragus, post-emergence, 504 h, 70 g ai/ha, read-out: Visual Gorowth Reduction (%) 21 days After Application SASKR) was 85 to 94%. For the same compound, the “GR50 SASKR” value [2, 6] was 1 g ai/ha and the “GR80 SASKR” value [2, 7] was 30 g ai/ha.

`COC(=O)c1nc(-c2ccc(Cl)c(F)c2)c(F)c(N)c1Cl` [Compound 216] was tested, and the pest or weed control at 35 g/ha ([3]; Stellaria media, post-emergence, 504 h, 35 g ai/ha, read-out: Visual Growth Reduction (%) 21 Days After Application STEME) was 30 to 44%, the pest or weed control at 70 g/ha ([3]; Stellaria media, post-emergence, 504 h, 70 g ai/ha, read-out: Visual Growth Reduction (%) 21 Days After Application STEME) was 30 to 44% and the pest or weed control at 140 g/ha ([3]; Stellaria media, post-emergence, 504 h, 140 g ai/ha, read-out: Visual Growth Reduction (%) 21 Days After Application STEME) was 75 to 84%. For the same compound, the “GR50 STEME” value [3, 8] was 52 g ai/ha, the “GR80 STEME” value [3, 9] was >140 g ai/ha and the pest or weed control at 35 g/ha ([4]; Phalaris minor, post-emergence, 504 h, 35 g ai/ha, read-out: Visual Growth Reduction (%) 21 Days After Application PHAMI) was 0 to 29%. The pest or weed control at 70 g/ha ([4]; Phalaris minor, post-emergence, 504 h, 70 g ai/ha, read-out: Visual Growth Reduction (%) 21 Days After Application PHAMI) was 30 to 44%, the pest or weed control at 140 g/ha ([4]; Phalaris minor, post-emergence, 504 h, 140 g ai/ha, read-out: Visual Growth Reduction (%) 21 Days After Application PHAMI) was 75 to 84% and the “GR50 PHAMI” value [4, 8] was >140 g ai/ha. For the same compound, the “GR80 PHAMI” value [4, 9] was >140 g ai/ha, the pest or weed control at 35 g/ha ([5]; Papaver rhoeas, post-emergence, 504 h, 35 g ai/ha, read-out: Visual Growth Reduction (%) 21 Days After Application PAPRH) was 95 to 100% and the pest or weed control at 70 g/ha ([5]; Papaver rhoeas, post-emergence, 504 h, 70 g ai/ha, read-out: Visual Growth Reduction (%) 21 Days After Application PAPRH) was 95 to 100%. For the same compound, the pest or weed control at 140 g/ha ([5]; Papaver rhoeas, post-emergence, 504 h, 140 g ai/ha, read-out: Visual Growth Reduction (%) 21 Days After Application PAPRH) was 95 to 100%, the “GR50 PAPRH” value [5, 8] was 1 g ai/ha and the “GR80 PAPRH” value [5, 9] was 1 g ai/ha.
